Values quoted from earlier work as cited in patent US20090035369A1, “Composition and Methods for Treating and Preventing Age-Related Macular Degeneration” (priority 2006, published 2009).

Columns and labels:
neovascularization = details: rodent model
[1] = pure DIM
[2] = pure DIM; remark: listed apart in the source

## c1ccc2c(Cc3c[nH]c4ccccc34)c[nH]c2c1 [DIM, 3,3′-diindolylmethane]
neovascularization
  inhibition of neovascularization: up to 76%
[1]
  absorption by the human body: poorly absorbed
[2]
  solubility: insoluble
